Reference: patent publication US20070049564A1 (Wyeth, priority 2005, published 2007)
Read-outs that look alike come from different tables or passages of the source.

How the values were obtained:
S. pyogenes GC 4563 = assay: MIC, broth microdilution; details: Streptococcus pyogenes
S. aureus GC 1079 = assay: MIC, broth microdilution; details: Staphylococcus aureus
S. agalactiae GC 4564 = assay: MIC, broth microdilution; details: Streptococcus agalactiae
E. coli GC 2271 = assay: MIC, broth microdilution; details: Escherichia coli
E. faecalis GC 2265 = assay: MIC, broth microdilution; details: Enterococcus faecalis
E. faecium GC 2243 = assay: MIC, broth microdilution; details: Enterococcus faecium
Experimental: (§1) Antimicrobial susceptibility testing. The in vitro activities of the antibiotics are determined by the broth microdilution method as recommended by the National Committee for Clinical Laboratory Standards (NCCLS) (1). Mueller-Hinton II broth (MHBII)(BBL Cockeysville, Md.) is the medium employed in the testing procedures. Microtiter plates containing serial dilutions of each antimicrobial agent are inoculated with each organism to yield the appropriate density (10^5 CFU/ml) in a 100 μl final volume. The plates are incubated for 18-22 hours at 35° C. in ambient air.
(§2) Representative compounds were first incubated in mouse serum for an hour prior to the in vitro testing against a panel of selected gram-positive and gram-negative bacteria strains. All compounds were also pre-incubated in water for an hour prior to testing as control.

E. coli GC 2235 = assay: MIC, broth microdilution; details: Escherichia coli
E. coli GC 2233 = assay: MIC, broth microdilution; details: Escherichia coli
S. aureus GC 6469 = assay: MIC, broth microdilution; details: Staphylococcus aureus
Staph. = assay: Range of MIC for Staph. strains, including MRSA; details: Staphylococcus aureus, MRSA
Experimental: as §1
Representative compounds were first incubated in mouse serum for an hour prior to the in vitro testing against a panel of selected gram-positive and gram-negative bacteria strains. All compounds were also pre-incubated in water for an hour prior to testing as control. Representative compounds of Formula I were incubated in human serum prior to MIC determination.

S. typhimurium GC 2172 = assay: MIC, broth microdilution; details: Salmonella enterica, TYPHIMURIUM
Experimental: as §1, §2

E. coli GC 3226 = assay: MIC, broth microdilution; details: Escherichia coli
E. coli GC 2236 = assay: MIC, broth microdilution; details: Escherichia coli
E. coli GC 2270 = assay: MIC, broth microdilution; details: Escherichia coli
E. coli = assay: Range of MIC for E. coli strains; details: Escherichia coli
E. faecalis GC 4555 = assay: MIC, broth microdilution; details: Enterococcus faecalis
S. aureus GC 6335 = assay: MIC, broth microdilution; details: Staphylococcus aureus
E. faecium GC 4556 = assay: MIC, broth microdilution; details: Enterococcus faecium
E. coli GC 1073 = assay: MIC, broth microdilution; details: Escherichia coli
c. albicans GC 3066 = assay: MIC, broth microdilution

CCCN(CC(=O)Nc1cc(N(C)C)c2c(c1O)C(=O)C1=C(O)[C@]3(O)C(=O)C(C(N)=O)=C(O)[C@@H](N(C)C)[C@@H]3C[C@@H]1C2)C(=O)OCOC(=O)c1cccs1 [Example 25, ({[(2-{[(5aR,6aS,7S,10aS)-9-(aminocarbonyl)-4,7-bis(dimethylamino)-1,8,10a,11-tetrahydroxy-10,12-dioxo-5,5a,6,6a,7,10,10a,12-octahydrotetracen-2-yl]amino}-2-oxoethyl)(propyl)amino]carbonyl}oxy)methyl thiophene-2-carboxylate]
1 mg/L: MIC (S. aureus GC 1079; GC1079, read-out: MINIMAL INHIBITORY CONCENTRATION MIC, pre-incubated in Mouse Serum) | MIC (E. coli GC 2271; GC2271, read-out: MINIMAL INHIBITORY CONCENTRATION MIC, pre-incubated in Mouse Serum) | MIC (E. faecium GC 2243; GC2243, read-out: MINIMAL INHIBITORY CONCENTRATION MIC, pre-incubated in Water) | MIC (E. coli GC 2235; GC2235, read-out: MINIMAL INHIBITORY CONCENTRATION MIC, pre-incubated in Mouse Serum) | MIC (E. coli GC 2270; GC2270, read-out: MINIMAL INHIBITORY CONCENTRATION MIC, pre-incubated in Mouse Serum) | MIC (E. faecalis GC 4555; GC4555, read-out: MINIMAL INHIBITORY CONCENTRATION MIC, pre-incubated in Mouse Serum) | MIC (E. faecium GC 4556; GC4556, read-out: MINIMAL INHIBITORY CONCENTRATION MIC, pre-incubated in Mouse Serum)
4 mg/L: MIC (S. aureus GC 6469; GC6469, read-out: MINIMAL INHIBITORY CONCENTRATION MIC, pre-incubated in Water) | MIC (E. faecium GC 4556; GC4556, read-out: MINIMAL INHIBITORY CONCENTRATION MIC, pre-incubated in Water)
0.25 to 2 mg/L: MIC (Staph.; read-out: Range of MIC, Staph (Mouse Serum)) | MIC (Staph.; read-out: Range of MIC, Staph. (mouse serum))
2 mg/L: MIC (S. aureus GC 1079; GC1079, read-out: MINIMAL INHIBITORY CONCENTRATION MIC, pre-incubated in Water) | MIC (E. faecalis GC 2265; GC2265, read-out: MINIMAL INHIBITORY CONCENTRATION MIC, pre-incubated in Mouse Serum) | MIC (E. faecalis GC 2265; GC2265, read-out: MINIMAL INHIBITORY CONCENTRATION MIC, pre-incubated in Water) | MIC (E. coli GC 2233; GC2233, read-out: MINIMAL INHIBITORY CONCENTRATION MIC, pre-incubated in Mouse Serum) | MIC (S. aureus GC 6469; GC6469, read-out: MINIMAL INHIBITORY CONCENTRATION MIC, pre-incubated in Mouse Serum) | MIC (E. coli GC 3226; GC3226, read-out: MINIMAL INHIBITORY CONCENTRATION MIC, pre-incubated in Mouse Serum) | MIC (E. coli GC 2236; GC2236, read-out: MINIMAL INHIBITORY CONCENTRATION MIC, pre-incubated in Mouse Serum) | MIC (E. faecalis GC 4555; GC4555, read-out: MINIMAL INHIBITORY CONCENTRATION MIC, pre-incubated in Water) | MIC (E. coli GC 1073; GC1073, read-out: MINIMAL INHIBITORY CONCENTRATION MIC, pre-incubated in Mouse Serum)
0.12 mg/L: MIC (S. pyogenes GC 4563; GC4563, read-out: MINIMAL INHIBITORY CONCENTRATION MIC, pre-incubated in Mouse Serum)
>64 UG/ML: MINIMAL INHIBITORY CONCENTRATION MIC (c. albicans GC 3066; pre-incubated in Water)
> 64 mg/L: MIC (S. typhimurium GC 2172; read-out: MINIMAL INHIBITORY CONCENTRATION MIC, pre-incubated in Water) | MIC (E. coli GC 3226; GC3226, read-out: MINIMAL INHIBITORY CONCENTRATION MIC, pre-incubated in Water) | MIC (E. coli GC 2270; GC2270, read-out: MINIMAL INHIBITORY CONCENTRATION MIC, pre-incubated in Water) | MIC (E. coli GC 1073; GC1073, read-out: MINIMAL INHIBITORY CONCENTRATION MIC, pre-incubated in Water) | MIC (c. albicans GC 3066; Candida albicans, GC3066, read-out: MINIMAL INHIBITORY CONCENTRATION MIC)
0.5 mg/L: MIC (S. agalactiae GC 4564; GC4564, read-out: MINIMAL INHIBITORY CONCENTRATION MIC, pre-incubated in Mouse Serum) | MIC (S. agalactiae GC 4564; GC4564, read-out: MINIMAL INHIBITORY CONCENTRATION MIC, pre-incubated in Water) | MIC (E. faecium GC 2243; GC2243, read-out: MINIMAL INHIBITORY CONCENTRATION MIC, pre-incubated in Mouse Serum) | MIC (S. aureus GC 6335; GC6335, read-out: MINIMAL INHIBITORY CONCENTRATION MIC, pre-incubated in Mouse Serum) | MIC (S. aureus GC 6335; GC6335, read-out: MINIMAL INHIBITORY CONCENTRATION MIC, pre-incubated in Water)
0.5 to 4 mg/L: MIC (Staph.; read-out: Range of MIC, Staph (Water)) | MIC (Staph.; read-out: Range of MIC, Staph. (water))
32 mg/L: MIC (E. coli GC 2271; GC2271, read-out: MINIMAL INHIBITORY CONCENTRATION MIC, pre-incubated in Water) | MIC (E. coli GC 2235; GC2235, read-out: MINIMAL INHIBITORY CONCENTRATION MIC, pre-incubated in Water) | MIC (E. coli GC 2233; GC2233, read-out: MINIMAL INHIBITORY CONCENTRATION MIC, pre-incubated in Water)
64 mg/L: MIC (E. coli GC 2236; GC2236, read-out: MINIMAL INHIBITORY CONCENTRATION MIC, pre-incubated in Water)
8 mg/L: MIC (S. typhimurium GC 2172; read-out: MINIMAL INHIBITORY CONCENTRATION MIC, pre-incubated in Mouse Serum)
1 to 2 mg/L: MIC (E. coli; 20 h, read-out: Range of MIC, E. coli (Mouse Serum)) | MIC (E. coli; read-out: Range of MIC, E. coli (mouse serum))
0.25 mg/L: MIC (S. pyogenes GC 4563; GC4563, read-out: MINIMAL INHIBITORY CONCENTRATION MIC, pre-incubated in Water)
